Reference: PubChem BioAssay AID1398 (The Scripps Research Institute Molecular Screening Center, 2008)
pIC50: −log10 of the molar value. The source made the active and inactive calls. No rule for the calls is given here.

Biological target: Signal transducer and activator of transcription 3 (Homo sapiens) (UniProt P40763)
Assay: STAT3 activation reporter response, dose response, cell-based (AID 1398)

In the case of `Cc1nnc(NC(=O)c2oc3c(ccc4ccccc43)c2C)s1`, the IC50 was > 0.619 µM (inactive).
For `CN(C)C(=O)COC(=O)/C=C/c1ccccc1[N+](=O)[O-]`, the pIC50 was 5.11.
Molecule `O=C(Cc1c[nH]c2ccccc12)Nc1nnc(C2CC2)s1` has a pIC50 of 5.53.
With `CC(=O)NCCC(=O)N1CCc2c([nH]c3ccccc23)C1c1cccc(Cl)c1` (stereo not given) the IC50 was > 55.7 µM (inactive).
In the case of `CCc1cc2c(NCCC(=O)O)nc(C)nc2s1`, the IC50 was > 55.7 µM (inactive).
In the case of `COc1ccc(Br)cc1C(=O)Nc1cccc(C)c1`, the IC50 was “inactive”.
With `CCC(=O)NCCSc1c[nH]c2ccccc12` the IC50 was “inactive”.
For `Cn1nc(-c2ccc(Cl)cc2)c2cc(C(=O)NCCCN3CCOCC3)sc21`, the IC50 was “inactive”.
In the case of `CN1C(=O)/C(=C\c2cc(Br)cs2)c2ccccc21`, the pIC50 was 6.20.
`CC(=O)NCCC(=O)N1CCc2c([nH]c3ccccc23)C1c1cccc(C)c1` (stereo not given) gave a pIC50 of 5.60.
`CCOc1ccccc1-c1n[nH]c(=S)o1` showed a pIC50 of 6.28.
Work on `CCC(C(=O)Nc1ccccc1OC)n1c(C(=O)OC)cc2ccsc21` (stereo not given) yielded a pIC50 of 5.69.
`O=C(Cc1cccs1)Nc1ccccn1` was tested, and the pIC50 was 5.09.
Molecule `c1ccc2c(c1)CCCN2c1nc2ccccc2n2cnnc12` has a pIC50 of 5.87.
For `COc1ccccc1C(=O)NNC(=S)Nc1ccccc1`, the IC50 was > 0.229 µM (inactive).
For `COCCSc1ccccc1C(=O)NCCc1ccccc1`, the IC50 was > 55.7 µM (inactive).
With `COc1cccc(-c2nc(N3CCCCC3C)c3ccccc3n2)c1O` (stereo not given) the IC50 was > 55.7 µM (inactive).
`Nc1ccccc1Sc1nc2ccccc2[nH]1` was tested, and the IC50 was “inactive”.
In the case of `COc1ccc(C2c3[nH]c4ccccc4c3CCN2C(=O)c2cc3ncccn3n2)c(F)c1` (stereo not given), the pIC50 was 5.28.
`CC1=NN(c2ccccc2)C(=O)/C1=C/c1c(O)[nH]c(=O)[nH]c1=O` was tested, and the IC50 was > 55.7 µM (inactive).
Molecule `N#Cc1cn(CC(=O)O)c2ccccc12` has a pIC50 of 5.01.
`Cc1cc(C)n(-c2nnc3n2N=C(c2c[nH]c4ccccc24)CS3)n1` was tested, and the IC50 was “inactive”.
`O=C(c1cccnc1)N1CCc2ccccc21` showed a pIC50 of 5.09.
For `Cc1noc(/C=C/N(C)C)c1S(=O)(=O)N1CCc2ccccc21`, the IC50 was “inactive”.
In the case of `COCc1cc(C)nc2sc(C(=O)NN)c(-n3cccc3)c12`, the IC50 was “inactive”.
Molecule `COC(=O)NNC(=O)c1ccccc1OC` has a pIC50 of 5.22.
`O=C(O)C(Cc1c[nH]c2ccccc12)N1Cc2ccccc2C1=O` (stereo not given) was tested, and the IC50 was “inactive”.
For `COc1ccc(-c2nnc(Nc3nc4c(OC)cccc4s3)o2)cc1`, the IC50 was > 55.7 µM (inactive).
`CC1Cc2ccccc2N1Cc1cc(=O)n2ccsc2n1` (stereo not given) was tested, and the IC50 was “inactive”.
With `CC1CCN(C(=O)Cn2c(=O)n(CCc3ccccc3)c(=O)c3ccccc32)CC1` the IC50 was > 55.7 µM (inactive).
In the case of `CCCc1nnc(N2C(=O)c3cccc4cccc(c34)C2=O)s1`, the IC50 was > 55.7 µM (inactive).
`CN(Cc1ccccc1)Cc1c[nH]c2ccccc12` was tested, and the IC50 was > 55.7 µM (inactive).
In the case of `COc1ccc(C)cc1NC(=O)c1[nH]c(C)c(C(C)=O)c1C`, the IC50 was “inactive”.
`COc1ccc(C2c3[nH]c4ccccc4c3CCN2C(=O)c2ccc(=O)n(C)n2)c(F)c1` (stereo not given) was tested, and the pIC50 was 5.61.
Work on `Cc1cc(-c2ccc(Cl)cc2)c(C#N)c(N)n1` yielded a pIC50 of 5.23.
Molecule `COc1ccccc1-c1nnc(SCC(=O)NC2CCCCC2)o1` has a pIC50 of 5.73.
`Cc1nc(/N=C(\N)Nc2ccccc2)nc2ccccc12` was tested, and the pIC50 was 5.68.
`Nc1nnc(Cc2c[nH]c3ccccc23)s1` was tested, and the IC50 was > 55.7 µM (inactive).
With `COC(=O)c1sccc1NC(=O)c1ccc(Br)s1` the IC50 was > 18.6 µM (inactive).
Work on `CCCN(CCC)C(=O)Cn1c2ccccc2c2nc(=O)cc(C)n21` yielded a pIC50 of 6.76.
For `Cc1c(C(=O)NCc2cccnc2)oc2ccc(S(=O)(=O)N3CC(C)CC(C)C3)cc12` (stereo not given), the IC50 was > 55.7 µM (inactive).
With `Cc1ccc(CC(=O)Nc2nc3c(s2)CCCC3)cc1` the IC50 was > 55.7 µM (inactive).
With `COCCNC(=O)c1cc2c(-c3ccc(Cl)cc3)nn(C)c2s1` the IC50 was > 55.7 µM (inactive).
In the case of `COCCNC(=O)C(=O)NNC(=O)c1ccccc1OC`, the IC50 was “inactive”.
Molecule `O=C(COc1ccccc1Cl)Nc1cc(Cl)ccc1O` has a pIC50 of 6.24.
In the case of `COc1ccc(Cl)cc1NC(=O)c1oc(C)nc1C`, the IC50 was > 55.7 µM (inactive).
For `CN1CCN(C(=O)CNc2ccc(C(F)(F)F)cc2[N+](=O)[O-])CC1`, the pIC50 was 5.45.
Work on `O=c1c2ccccc2ncn1Cc1ccco1` yielded a pIC50 of 5.25.
For `CN1N=C(C(=O)N2CCc3c([nH]c4ccccc34)C2c2c(F)cccc2Cl)CCC1=O` (stereo not given), the pIC50 was 5.32.
`O=C(Nc1nnc(-c2ccccc2Cl)o1)c1nc2ccccc2s1` was tested, and the IC50 was > 55.7 µM (inactive).
With `O=C(CCCSc1nc2ccccc2s1)NCc1ccco1` the IC50 was “inactive”.
With `O=C(CN1CCNCC1)Nc1ccc(Oc2ccccc2)cc1` the IC50 was > 55.7 µM (inactive).
`COc1ccc(Cl)cc1NC(=O)Nc1ccc(Br)cn1` was tested, and the IC50 was > 55.7 µM (inactive).
Molecule `CCOc1ccc(CN2CCN(Cc3cc4ccccc4[nH]3)CC2CCO)cc1` (stereo not given) has a pIC50 of 6.19.
`O=C(O)C1CC=CCC1C(=O)Nc1ccc(S(=O)(=O)N2CCCc3ccccc32)cc1` (stereo not given) was tested, and the pIC50 was 5.25.
For `CCn1c(C(=O)Nc2ccsc2C(=O)OC)cc2sc(Cl)cc21`, the IC50 was > 55.7 µM (inactive).
For `COc1ccc(S(=O)(=O)Nc2nc3ccccc3s2)cc1OC`, the IC50 was “inactive”.
In the case of `Cc1cccc2c1NC(=O)/C2=C\C(=O)c1cccs1`, the IC50 was > 18.6 µM (inactive).
With `CC(C)CC(=O)NC(=S)Nc1nc(-c2ccccc2)cs1` the pIC50 was 6.33.
`CN1CCN(CCCNC(=O)c2cc3c(-c4ccc(Cl)cc4)nn(C)c3s2)CC1` was tested, and the pIC50 was 5.42.
In the case of `CCOc1cc(-c2ccc(N)c(OCC)c2)ccc1N`, the IC50 was > 55.7 µM (inactive).
Molecule `Cc1c(C#N)c2ccccc2n1CC(=O)O` has a pIC50 of 5.29.
In the case of `CCN(CC)S(=O)(=O)c1ccc(-c2nnc3sc4cccc(C)c4n23)cc1`, the IC50 was > 55.7 µM (inactive).
`O=C(Nc1ccccc1O)c1csc2c1CCCC2` was tested, and the pIC50 was 5.61.
For `COc1cccc2sc(Nc3nnc(-c4ccc(F)cc4)o3)nc12`, the IC50 was > 0.688 µM (inactive).
In the case of `CC(C)CC1c2[nH]c3ccccc3c2CCN1C(=O)CCC(=O)N(C)C` (stereo not given), the IC50 was > 6.19 µM (inactive).
For `NC(=O)CSc1c[nH]c2ccccc12`, the IC50 was “inactive”.
For `O=C(CCc1nnc(Cc2ccc3c(c2)OCO3)o1)NCc1nc2ccccc2s1`, the pIC50 was 5.55.
With `CC(=O)n1cc(Nc2ccc([N+](=O)[O-])cc2)c2ccccc21` the IC50 was > 55.7 µM (inactive).
For `O=C(Cc1cnc2ncnn2c1)N1CCc2c([nH]c3ccccc23)C1c1ccccc1F` (stereo not given), the IC50 was “inactive”.
`CCOC(=O)C1(CC2CCCCO2)CCN(Cc2cc3ccccc3[nH]2)CC1` (stereo not given) was tested, and the IC50 was > 55.7 µM (inactive).
`CC(=O)N1N=C(c2ccccc2O)OC1(C)CC(=O)Nc1ccccc1` (stereo not given) was tested, and the IC50 was > 55.7 µM (inactive).
For `CC1=C(C)C(=O)C(N2CCOCC2)=CC1=O`, the IC50 was “inactive”.
With `O=C(Cc1c[nH]c2ccccc12)Nc1nc2ccccc2[nH]1` the pIC50 was 5.30.
`COCCCNC(=O)c1cc2c(-c3ccc(Cl)cc3)nn(C)c2s1` was tested, and the IC50 was > 55.7 µM (inactive).
`CCCNC(=O)Cn1c2ccccc2c2nc(=O)cc(C)n21` gave a pIC50 of 5.48.
For `NNc1ncnc2sc3c(c12)CCC3`, the IC50 was > 55.7 µM (inactive).
`COc1ccccc1C(=O)NNC(=O)c1ccc(NC(=O)C(C)C)cc1` showed a pIC50 of 5.89.
`COCCCNc1nc2c(-c3cccc(C(F)(F)F)c3)nnn2c2ccccc12` was tested, and the IC50 was > 55.7 µM (inactive).
Molecule `Cc1nc2ccccc2cc1O` has a pIC50 of 5.47.
`COc1cc(NC(=O)c2cc(-c3ccco3)on2)c(OC)cc1Cl` showed a pIC50 of 5.77.
With `Cc1nn(-c2ccc(Cl)cc2)c(N)c1C(O)(CSc1nccn1C)C(F)(F)F` (stereo not given) the IC50 was > 55.7 µM (inactive).
In the case of `CCOc1ccccc1CN1CCN(Cc2cc3ccccc3[nH]2)CC1CCO` (stereo not given), the IC50 was > 55.7 µM (inactive).
Work on `Cc1ccccc1C1c2[nH]c3ccccc3c2CCN1C(=O)c1ccc(=O)n(C)n1` (stereo not given) yielded a pIC50 of 5.38.
`CN1C(=O)c2ccccc2C(C(=O)NCCCN2CCCC2=O)C1c1c[nH]c2ccccc12` (stereo not given) was tested, and the IC50 was > 55.7 µM (inactive).
For `CCOC(=O)CC1C(=O)NCCN1C(=O)c1cc2c(=O)n3cccc(C)c3nc2s1` (stereo not given), the IC50 was > 55.7 µM (inactive).
Molecule `O=C(c1cc[n+]([O-])cc1)N1CCc2c([nH]c3ccccc23)C1c1ccccc1Cl` (stereo not given) has a pIC50 of 5.08.
`COCc1cc(=O)n2c(-c3ccccc3OC)n[nH]c2n1` showed a pIC50 of 6.09.
`Cc1nc2c(n1C1CCCCC1)C(=O)c1ccccc1C2=O` showed a pIC50 of 5.24.
In the case of `O=C(C1CCCN(S(=O)(=O)c2cccc3cccnc23)C1)N1CCc2ccccc21` (stereo not given), the IC50 was > 55.7 µM (inactive).
For `O=C(CCN1CCOCC1)N1CCc2c([nH]c3ccccc23)C1c1cccc(Cl)c1` (stereo not given), the pIC50 was 5.13.
Molecule `CCOC(=O)c1sc(NCc2ccco2)c(-c2nc3ccccc3s2)c1N` has a pIC50 of 5.01.
`c1ccc2c(CNC3CCCCCC3)c[nH]c2c1` was tested, and the IC50 was > 55.7 µM (inactive).
With `COc1ccc(NC(=O)N2CCn3c2nc2ccccc23)cc1` the IC50 was > 55.7 µM (inactive).
`Cn1nc(-c2ccc(Cl)cc2)c2cc(C(=O)NCCN3CCOCC3)sc21` showed a pIC50 of 5.16.
In the case of `CCN1CCN(C(=O)c2cc3c(-c4ccc(Cl)cc4)nn(C)c3s2)CC1`, the IC50 was > 55.7 µM (inactive).
For `COC(=O)c1n[nH]c2ccccc12`, the pIC50 was 5.48.
In the case of `COc1ccc(CN2CCN(S(=O)(=O)c3ccc(C)cc3)CC2)cc1Br`, the pIC50 was 5.21.
With `COc1ccc(-c2nc3scc(-c4ccccc4)n3n2)cc1` the pIC50 was 5.24.
In the case of `CCOc1ccccc1C1CC(c2cccs2)=NN1S(C)(=O)=O` (stereo not given), the IC50 was > 55.7 µM (inactive).
`CC(OC(=O)c1cccnc1SCc1cc(=O)n2ccccc2n1)c1ccccn1` (stereo not given) was tested, and the IC50 was > 6.19 µM (inactive).
`COc1ccc(Cl)cc1-c1nc(-c2ccc(Br)o2)no1` gave a pIC50 of 5.07.
In the case of `Cn1nc(-c2ccc(Cl)cc2)c2cc(C(=O)NCC3CCCO3)sc21` (stereo not given), the IC50 was > 6.19 µM (inactive).
For `CN(C)C(CN1C(=O)C2CC=CCC2C1=O)c1cn(C)c2ccccc12` (stereo not given), the IC50 was > 55.7 µM (inactive).
`CCC(CC)NC(=O)Cc1ccccc1[N+](=O)[O-]` was tested, and the IC50 was > 55.7 µM (inactive).
